How the values were obtained:
[1] = system: mice with combined leptin and LDL-receptor deficiency (double knockout [DKO] mice); experiment: Blood analyses (glucose, insulin, lipids, HOMA, adiponectin) in obese, dyslipidemic and diabetic DKO mice; assay type: in vivo, mouse
From the text: We measured the effect of stevioside on weight, blood variables (e.g. glucose, insulin, lipids), PPAR expression in adipose tissues, and on atherosclerosis in mice with combined leptin and LDL-receptor deficiency (double knockout [DKO] mice).
Homozygous LDL-receptor-knockout mice (LDLR^(−/−)), heterozygous ob/+, and C57BL6 mice were purchased from Jackson Laboratory, Bar Harbor, Me. LDLR^(−/−) mice were backcrossed into a C57BL6 background to the 10th generation. To obtain DKO mice with combined leptin deficiency (ob/ob) and LDL-receptor deficiency, LDLR^(−/−) and ob/+ mice were crossed. All offspring were genotyped by polymerase chain reaction (PCR) techniques. All mice were housed at 22° C. on a fixed 12/12-hour light/dark cycle. Experimental procedures in animals were performed in accordance with protocols approved by the Institutional Animal Care and Research Advisory Committee. All mice were fed standard chow containing 4% fat (Pavan Service). Food intake was ≈5.7 g/d. Mice (about 50 g) were treated with stevioside (N=14; 10 mg/kg), steviol (N=9; 5 mg/kg) or placebo (N=17) for 12 weeks between 12 and 24 weeks of age. Stevioside (Molecular weight: 804) was dissolved in water (1 mg/ml) and 500 μl of the solution was administered orally. Steviol (Molecular weight: 318) was dissolved in water containing 6% NaHCO3 (1 mg/ml) and 250 μl of the solution was administered orally.
Blood of conscious mice was collected by tail bleeding into EDTA tubes after an overnight fast. Plasma was obtained by centrifugation. Plasma cholesterol and triglycerides were measured by means of standard enzymatic colorimetric assays (Boehringer Mannheim), plasma fatty acids (FFA) by means of the FFA-Half Microtest kit (Roche Applied Science), glucose by means of a glucometer (Menarini Diagnostics), plasma insulin and adiponectin by means ELISAs (Mercodia and R&D, respectively). Insulin resistance was calculated by a homeostasis model assessment (HOMA)=fasting serum insulin (mU/L) times fasting blood glucose (mmol/L)/22.5.

anaesthetised dogs = conditions: 200 mg stevioside powder/kg peroral; cited from earlier work
diabetic rats = conditions: blood of diabetic rats; cited from earlier work
[2] = system: everted gastrointestinal sacs of rats and Caco-2 cell layers; conditions: everted gastrointestinal sacs of rats, Caco-2 cell layers; cited from earlier work
[3] = Analysis of steviol metabolites in 24 h human urine after oral stevioside; assay type: in vivo
Method: Urine Fractionation and Derivatisation of steviol containing fractions. The total 24 h urine fraction (between 1124 and 2494 mL) form human subject subjected to a steviol treatment (three days of oral stevioside administration (750 mg per day)) was run over an Amberlite XAD-2 column at about 30 mL/min. The column bed volume was 200 mL which is sufficient for the adsorption of all amphipathic molecules in 24 h urine. The columns were then rinsed with 1 L of distilled water and then eluted with 400 mL MeOH:Acetone (50:50, v/v). The eluate was divided into 4 equal fractions and the solvent was evaporated at reduced pressure at 50° C.
Fractions containing steviol and/or dihydroisosteviol used as internal standard were completely dried; the residues were taken up in dry acetone and derivatized to form the 7-methoxy-coumarinyl esters as described (Minne, V. et al. J. Agr. Food Chem., 2004, 52, 2445-2449). […] After evaporation of the solvent, the residue was dissolved in a known amount of MeOH and HPLC was done using a fluorescence detector (λexc.: 321 nm, λem.: 391 nm) (Minne, V. et al. J. Agr. Food Chem., 2004, 52, 2445-2449). […]
Isolation of larger amounts of steviol glucuronide. […] Samples of each fraction were analysed by TLC using ethyl acetate:ethanol:water (80:30:20) as solvent and compared with steviol glucuronide as a reference compound. […]

[4] = stevioside 10 mg/kg or steviol 5 mg/kg orally, 12 weeks, compared with placebo mice
[5] = stevioside 10 mg/kg orally, 12 weeks, compared to baseline levels

SMILES: C=C1C[C@@]23CC[C@H]4C(C)(CCC[C@@]4(C)C(=O)O[C@@H]4O[C@H](CO)C(O)[C@H](O)C4O)[C@@H]2CCC1(OC1O[C@H](CO)C(O)C(O)C1OC1O[C@H](CO)C(O)[C@H](O)C1O)C3 (stereo in doubt) [stevioside, Kaur-16-en-18-oic acid, 13-[(2-O-b-D-glucopyranosyl-b-D-glucopyranosyl)oxy]-, b-D-glucopyranosyl ester, (4a)-]
- plasma concentration of adiponectin ([1]; after 12 weeks of treatment, before treatment 4729±1652, P=0.003): 6517 ± 1472 ng/mL
- FFA level [1, 4]: significantly lower
- HOMA values (insulin resistance) [1, 4]: significantly lower
- cholesterol level [1, 4]: significantly lower
- glucose level [1, 4]: significantly lower
- insulin level [1, 4]: significantly lower
- triglyceride level [1, 4]: significantly lower
- FFA [1, 5]: reduced
- cholesterol [1, 5]: reduced
- glucose [1, 5]: reduced
- insulin [1, 5]: reduced
- triglycerides [1, 5]: reduced
- insulin sensitivity ([1]; stevioside 10 mg/kg orally, 12 weeks, result of the decrease in glucose and insulin): increase
- blood pressure (anaesthetised dogs): short-term blood pressure reduction
- HDL-cholesterol (diabetic rats): increases
- serum concentration of LDL cholesterol (diabetic rats): lowers
- serum concentration of triglycerides (diabetic rats): lowers
- uptake by the intestinal tract [2]: extremely low
- free steviol in urine ([3]; after oral stevioside, human urine): no free steviol can be detected
- metabolite detected in the collected urine ([3]; three days of oral stevioside (750 mg per day), 24 h urine): steviol glucuronide was isolated as the only metabolite detected

Reference: patent US20100099640A1, “TISSUE DEGENERATION PROTECTION” (priority 2007, published 2010)
